IC50 data for 2 molecules are collected here from PubChem BioAssay AID651570 (Sanford-Burnham Center for Chemical Genomics, 2012).

This experiment relates to Wnt-LIGHT cells, Wnt3a-conditioned, luciferase reporter luminescence. The experiment is described as follows: Wnt3a-driven reporter signaling inhibition, dose response, selectivity assay for Gli-SUFU antagonist project, Wnt-LIGHT cells, luminescence (AID 651570).

Structures are written as SMILES. Activity calls are given as the source filed them.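 How the source made its calls: active means compounds that block the Wnt3a luciferase reporter with IC50 at or below 20 µM, flagged as nonspecific; inactive means the rest.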

What is called IC50 is the concentration needed to halve the response being measured. In the case of `O=C(C[C@H]1C/C=C\C[C@H](NC(=O)OCC2c3ccccc3-c3ccccc32)C(=O)OC[C@@H]2CCCN2C1=O)N[C@H](CO)Cc1ccccc1`, the IC50 was > 50 µM (inactive).
To `O=C(Nc1ccccc1)C1=C[C@H](C2CCCCC2)C[C@H](OCCCCO)O1` belongs > 50 µM (inactive).
